According to patent US20240425456A1, “DEGRADER” (ASKA PHARMACEUTICAL CO., LTD., priority 2021, published 2024):

Legend:
Type in all cases: cell-based
JAK1 = target: T1, JAK1 (Homo sapiens, UniProt P23458); assay: Degradation-inducing effect on JAK in Jurkat cells (chemiluminescent Western blotting), JAK1; conditions: 1 μmol/L, 6 hours, corrected by GAPDH, DMSO as 100%
T1 construct: endogenous in cells; host or cells: Jurkat cells
Method: (§1) The degradation-inducing effect of the compound of the present invention on JAK family proteins was evaluated in vitro using Jurkat cells, of which cell line was derived from human leukemic T cells.
(§2) JAK1, JAK2, JAK3, and Tyk2-positive Jurkat cells were seeded at a density of 1×10^5 cells/mL on 10 cm diameter dishes and then cultured in RPMI 1640 medium (FUJIFILM Wako Pure Chemical: catalog number: 189-02025) containing 10% FBS (Thermo Fisher Scientific: catalog number: 10437-028) at 5% CO2 and 37° C. for 3 days. Then, each of the test compounds (compounds of Examples 1 to 11 and Comparative Examples 1 and 2) was added to the dish at a final concentration of 1 μmol/L, and the cells were cultured in the presence of the test compound for 6 hours. After that, the cell culture medium was collected in a 15 mL centrifuge tube (1000 rpm (240× g), room temperature, 5 min), followed by washing with PBS (1000 rpm (240× g), room temperature, 5 min). Then, the cells in the centrifuge tube were collected in a 1.5 mL tube (3000 rpm (860× g), 4° C., 5 min), lysed using RIPA buffer (25 mmol/L Tris-HCl (pH 7.4), 25 mmol/L NaCl, 0.5 mmol/L EGTA (pH 8.0), 0.1% SDS, 1% protease inhibitor), sonicated at ice temperature (cycles of [7.5 sec sonication, 5 sec off] for 5 min) and subjected to centrifugation (15000 rpm (21600× g), 4° C., 30 min). The thus-obtained supernatant was used as the protein solution. Using the BCA protein assay kit (Thermo Fisher Scientific: catalog number: 23225), the protein concentration of the protein solution of each test compound was measured according to the kit instructions, and then adjusted to 1.4 mg/mL with RIPA buffer. The thus-adjusted protein solutions were subjected to a fully automated Western blotting device (Simple Westerns Wes: proteinSimple) to detect the protein levels (JAK1, JAK2, JAK3, and Tyk2 as the target proteins, and GAPDH (Glyceraldehyde 3-phosphate dehydrogenase) as the internal standard protein) in the protein solutions by chemiluminescent Western blotting.
(§3) Furthermore, the luminescence levels of JAK1, JAK2, JAK3, and Tyk2 detected by chemiluminescent Western blotting were quantified numerically by using an analysis software (Compass software for Simple Western (version 4.0.0)) attached to the fully automated Western blotting device. The numerical values of the quantified luminescence levels were corrected by the protein levels of the internal standard protein, i.e., GAPDH, (target protein levels/GAPDH protein levels), and compared among the test compounds with dimethyl sulfoxide (DMSO) as 100%.

JAK2 = target: T2, JAK2 (Homo sapiens, UniProt O60674); assay: Degradation-inducing effect on JAK in Jurkat cells (chemiluminescent Western blotting), JAK2; conditions: 1 μmol/L, 6 hours, corrected by GAPDH, DMSO as 100%
T2 construct: endogenous in cells; host or cells: Jurkat cells
T2 sequence (O60674 whole entry): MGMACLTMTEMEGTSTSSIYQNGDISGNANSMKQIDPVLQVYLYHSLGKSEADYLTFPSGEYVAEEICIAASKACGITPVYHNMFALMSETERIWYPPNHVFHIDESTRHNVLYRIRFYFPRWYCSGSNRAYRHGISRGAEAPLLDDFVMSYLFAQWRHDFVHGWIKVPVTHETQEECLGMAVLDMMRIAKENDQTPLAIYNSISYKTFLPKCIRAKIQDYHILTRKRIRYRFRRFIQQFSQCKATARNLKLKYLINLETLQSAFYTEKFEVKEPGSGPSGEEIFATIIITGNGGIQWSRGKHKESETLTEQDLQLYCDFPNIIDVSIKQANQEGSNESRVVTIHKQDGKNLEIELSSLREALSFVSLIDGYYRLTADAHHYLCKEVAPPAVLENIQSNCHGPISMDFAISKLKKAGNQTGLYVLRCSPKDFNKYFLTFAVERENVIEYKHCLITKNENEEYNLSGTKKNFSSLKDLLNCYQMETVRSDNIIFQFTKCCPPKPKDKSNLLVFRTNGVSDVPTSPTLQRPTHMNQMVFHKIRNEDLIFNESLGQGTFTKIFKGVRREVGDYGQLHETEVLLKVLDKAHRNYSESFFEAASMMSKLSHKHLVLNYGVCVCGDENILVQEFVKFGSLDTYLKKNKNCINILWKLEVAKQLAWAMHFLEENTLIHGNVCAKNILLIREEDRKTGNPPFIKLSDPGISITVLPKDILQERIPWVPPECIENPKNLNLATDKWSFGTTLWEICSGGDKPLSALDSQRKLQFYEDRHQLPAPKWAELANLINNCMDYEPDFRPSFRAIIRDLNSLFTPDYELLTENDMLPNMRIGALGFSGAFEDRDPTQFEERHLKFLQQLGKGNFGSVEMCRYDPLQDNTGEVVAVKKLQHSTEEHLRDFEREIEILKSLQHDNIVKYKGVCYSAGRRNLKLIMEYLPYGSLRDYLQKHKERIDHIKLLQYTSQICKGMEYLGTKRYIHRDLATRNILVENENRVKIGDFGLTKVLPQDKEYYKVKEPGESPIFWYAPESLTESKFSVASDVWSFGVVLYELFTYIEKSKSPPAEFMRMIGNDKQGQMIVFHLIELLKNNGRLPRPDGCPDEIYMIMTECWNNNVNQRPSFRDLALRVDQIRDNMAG
Method: as §1, §2, §3

JAK3 = target: T3, JAK3 (Homo sapiens, UniProt P52333); assay: Degradation-inducing effect on JAK in Jurkat cells (chemiluminescent Western blotting), JAK3; conditions: 1 μmol/L, 6 hours, corrected by GAPDH, DMSO as 100%, read-out: JAK protein ratio of Jurkat cells after treatment of each test compound: JAK3
T3 construct: endogenous in cells; host or cells: Jurkat cells
T3 sequence (P52333 1-1124): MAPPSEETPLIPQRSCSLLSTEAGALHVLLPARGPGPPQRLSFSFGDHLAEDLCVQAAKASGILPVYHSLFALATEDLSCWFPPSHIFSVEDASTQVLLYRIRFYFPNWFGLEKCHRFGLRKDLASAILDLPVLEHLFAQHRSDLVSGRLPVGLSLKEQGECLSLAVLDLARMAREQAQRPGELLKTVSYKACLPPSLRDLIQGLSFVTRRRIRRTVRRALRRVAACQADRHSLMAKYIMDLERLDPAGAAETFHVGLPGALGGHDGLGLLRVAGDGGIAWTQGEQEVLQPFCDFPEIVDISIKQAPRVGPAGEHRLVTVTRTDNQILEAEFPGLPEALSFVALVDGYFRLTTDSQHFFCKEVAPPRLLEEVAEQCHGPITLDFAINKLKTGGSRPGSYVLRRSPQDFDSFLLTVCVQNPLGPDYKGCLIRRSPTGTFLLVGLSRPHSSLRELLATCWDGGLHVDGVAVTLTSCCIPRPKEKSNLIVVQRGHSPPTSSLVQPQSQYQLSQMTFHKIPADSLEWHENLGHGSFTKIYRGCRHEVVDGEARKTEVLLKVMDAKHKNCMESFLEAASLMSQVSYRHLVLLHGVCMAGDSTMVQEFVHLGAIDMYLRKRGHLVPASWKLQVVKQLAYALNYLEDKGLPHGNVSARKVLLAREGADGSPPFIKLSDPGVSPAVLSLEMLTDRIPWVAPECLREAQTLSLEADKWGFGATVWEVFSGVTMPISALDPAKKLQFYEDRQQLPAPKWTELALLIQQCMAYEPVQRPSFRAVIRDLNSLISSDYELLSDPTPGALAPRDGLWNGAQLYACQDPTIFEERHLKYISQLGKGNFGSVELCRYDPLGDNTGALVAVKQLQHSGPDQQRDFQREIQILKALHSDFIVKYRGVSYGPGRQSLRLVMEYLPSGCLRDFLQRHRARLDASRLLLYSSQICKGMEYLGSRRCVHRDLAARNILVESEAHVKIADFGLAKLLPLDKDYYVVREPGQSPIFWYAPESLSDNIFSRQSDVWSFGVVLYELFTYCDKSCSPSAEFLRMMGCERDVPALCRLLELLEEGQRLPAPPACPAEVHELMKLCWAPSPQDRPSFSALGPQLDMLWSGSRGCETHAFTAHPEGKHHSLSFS
Method: as §1, §2, §3

Tyk2 = target: T4, Tyk2 (Homo sapiens, UniProt P29597); assay: Degradation-inducing effect on JAK in Jurkat cells (chemiluminescent Western blotting), Tyk2; conditions: 1 μmol/L, 6 hours; for JAK protein ratio of Jurkat cells after treatment of each test compound: Tyk2: corrected by GAPDH, DMSO as 100%
T4 construct: endogenous in cells; host or cells: Jurkat cells
T4 sequence (P29597 whole entry): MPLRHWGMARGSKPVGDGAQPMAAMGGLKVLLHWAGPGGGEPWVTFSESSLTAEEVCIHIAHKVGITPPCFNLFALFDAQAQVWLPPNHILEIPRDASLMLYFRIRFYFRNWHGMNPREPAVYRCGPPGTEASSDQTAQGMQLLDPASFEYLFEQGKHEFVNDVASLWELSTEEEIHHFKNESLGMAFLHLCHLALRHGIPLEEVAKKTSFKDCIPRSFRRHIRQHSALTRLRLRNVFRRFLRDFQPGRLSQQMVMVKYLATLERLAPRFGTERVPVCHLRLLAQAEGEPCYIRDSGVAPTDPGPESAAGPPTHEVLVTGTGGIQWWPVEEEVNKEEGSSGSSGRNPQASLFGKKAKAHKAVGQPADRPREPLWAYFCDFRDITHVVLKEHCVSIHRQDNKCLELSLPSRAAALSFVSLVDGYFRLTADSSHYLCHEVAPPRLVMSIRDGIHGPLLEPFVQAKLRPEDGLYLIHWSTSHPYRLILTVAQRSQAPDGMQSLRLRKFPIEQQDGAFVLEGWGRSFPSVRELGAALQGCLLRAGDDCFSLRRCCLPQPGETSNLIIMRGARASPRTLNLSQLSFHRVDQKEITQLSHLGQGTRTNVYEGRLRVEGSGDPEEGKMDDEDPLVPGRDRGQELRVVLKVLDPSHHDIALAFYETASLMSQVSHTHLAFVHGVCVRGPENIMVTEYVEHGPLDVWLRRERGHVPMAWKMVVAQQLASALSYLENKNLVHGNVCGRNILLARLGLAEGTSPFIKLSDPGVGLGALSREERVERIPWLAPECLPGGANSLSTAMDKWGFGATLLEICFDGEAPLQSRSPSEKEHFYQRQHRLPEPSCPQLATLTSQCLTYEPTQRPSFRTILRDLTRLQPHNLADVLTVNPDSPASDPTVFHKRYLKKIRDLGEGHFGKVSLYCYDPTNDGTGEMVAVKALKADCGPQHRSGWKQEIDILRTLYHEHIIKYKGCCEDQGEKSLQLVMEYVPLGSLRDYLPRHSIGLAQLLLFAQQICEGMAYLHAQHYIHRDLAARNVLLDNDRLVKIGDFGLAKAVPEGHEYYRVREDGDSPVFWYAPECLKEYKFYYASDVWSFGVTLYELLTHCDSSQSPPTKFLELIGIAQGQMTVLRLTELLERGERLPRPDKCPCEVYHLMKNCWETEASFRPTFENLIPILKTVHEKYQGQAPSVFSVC
Method: as §1, §2, §3

T1 sequence (P23458 whole entry): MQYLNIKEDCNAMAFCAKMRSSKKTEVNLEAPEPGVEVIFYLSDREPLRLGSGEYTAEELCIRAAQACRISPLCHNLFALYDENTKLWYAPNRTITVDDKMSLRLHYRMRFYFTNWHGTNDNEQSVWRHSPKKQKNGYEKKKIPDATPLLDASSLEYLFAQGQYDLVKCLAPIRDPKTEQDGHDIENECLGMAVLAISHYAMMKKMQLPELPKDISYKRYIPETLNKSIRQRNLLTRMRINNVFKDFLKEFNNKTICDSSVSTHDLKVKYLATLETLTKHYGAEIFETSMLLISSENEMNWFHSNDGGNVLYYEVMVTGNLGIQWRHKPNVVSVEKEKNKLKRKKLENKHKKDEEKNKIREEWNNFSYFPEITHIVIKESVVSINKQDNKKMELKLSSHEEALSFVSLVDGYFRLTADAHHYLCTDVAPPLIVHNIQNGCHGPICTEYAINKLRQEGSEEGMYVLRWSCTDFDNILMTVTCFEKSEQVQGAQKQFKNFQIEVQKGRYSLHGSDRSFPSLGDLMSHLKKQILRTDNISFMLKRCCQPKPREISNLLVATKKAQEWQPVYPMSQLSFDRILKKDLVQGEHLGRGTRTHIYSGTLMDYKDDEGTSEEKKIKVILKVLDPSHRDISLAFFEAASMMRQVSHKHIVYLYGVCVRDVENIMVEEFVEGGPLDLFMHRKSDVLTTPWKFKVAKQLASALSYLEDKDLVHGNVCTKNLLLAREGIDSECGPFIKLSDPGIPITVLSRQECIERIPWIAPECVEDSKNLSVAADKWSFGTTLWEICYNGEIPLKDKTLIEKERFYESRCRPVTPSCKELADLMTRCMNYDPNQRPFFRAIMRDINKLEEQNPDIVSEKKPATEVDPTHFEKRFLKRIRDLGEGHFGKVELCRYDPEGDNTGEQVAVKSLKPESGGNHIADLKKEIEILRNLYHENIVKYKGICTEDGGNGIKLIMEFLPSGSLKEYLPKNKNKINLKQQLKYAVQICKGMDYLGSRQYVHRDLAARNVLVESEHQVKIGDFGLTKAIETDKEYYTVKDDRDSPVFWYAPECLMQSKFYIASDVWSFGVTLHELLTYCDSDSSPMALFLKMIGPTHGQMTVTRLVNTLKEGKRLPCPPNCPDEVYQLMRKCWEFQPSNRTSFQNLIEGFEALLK

CNC(=O)c1cnc(Nc2ccc(C(=O)NCCCCCCCCCCC(=O)N[C@H](C(=O)N3C[C@H](O)C[C@H]3C(=O)NCc3ccc(-c4scnc4C)cc3)C(C)(C)C)cn2)cc1Nc1cccc(C(=O)NC)c1OC [Example 6, 6-((5-((11-(((S)-1-((2S,4R)-4-Hydroxy-2-((4-(4-methylthiazol-5-yl)benzyl)carbamoyl)pyrrolidin-1-yl)-3,3-dimethyl-1-oxobutan-2-yl)amino)-11-oxoundecyl)carbamoyl)pyridin-2-yl)amino)-4-((2-methoxy-3-(methylcarbamoyl)phenyl)amino)-N-methylnicotinamide]
JAK protein ratio of Jurkat cells after treatment of each test compound: JAK1 (JAK1): 113.2% | JAK protein ratio of Jurkat cells after treatment of each test compound: JAK2 (JAK2): 139.8% | JAK3 protein level relative to DMSO at 1 µM (JAK3): 122% | JAK protein ratio of Jurkat cells after treatment of each test compound: Tyk2 (Tyk2): 30.3%

CNC(=O)c1cnc(Nc2ccc(F)cn2)cc1Nc1cccc(C(=O)NCCCCCCCCCC(=O)N[C@H](C(=O)N2C[C@H](O)C[C@H]2C(=O)NCc2ccc(-c3scnc3C)cc2)C(C)(C)C)c1OC [Comparative Example 1, 6-((5-Fluoropyridin-2-yl)amino)-4-((3-((10-(((S)-1-((2S,4R)-4-hydroxy 2-((4-(4-methylthiazol-5-yl)benzyl)carbamoyl)pyrrolidin-1-yl)-3,3-dimethyl-1-oxobutan-2-yl)amino)-10-oxodecyl)carbamoyl)-2-methoxyphenyl)amino)-N-methylnicotinamide, reference compound]
JAK protein ratio of Jurkat cells after treatment of each test compound: JAK1 (JAK1): 92.4% | JAK protein ratio of Jurkat cells after treatment of each test compound: JAK2 (JAK2): 87.6% | JAK3 protein level relative to DMSO at 1 µM (JAK3): 83.3% | protein level of Tyk2 (in words) (Tyk2): not reduced | JAK protein ratio of Jurkat cells after treatment of each test compound: Tyk2 (Tyk2): 78.9%

CNC(=O)c1cnc(Nc2ccc(C(=O)NCCCCCCCCCC(=O)N[C@H](C(=O)N3C[C@H](O)C[C@H]3C(=O)NCc3ccc(-c4scnc4C)cc3)C(C)(C)C)cn2)cc1Nc1cccc(-c2ncn(C)n2)c1OC [Example 10, 6-((5-((10-(((S)-1-((2S,4R)-4-hydroxy-2-((4-(4-methylthiazol-5-yl)benzyl)carbamoyl)pyrrolidin-1-yl)-3,3-dimethyl-1-oxobutan-2-yl)amino)-10-oxodecyl)carbamoyl)pyridin-2-yl)amino)-4-((2-methoxy-3-(1-methyl-^1H-1,2,4-triazol-3-yl)phenyl)amino)-N-methylnicotinamide]
JAK protein ratio of Jurkat cells after treatment of each test compound: JAK1 (JAK1): 90.5% | JAK protein ratio of Jurkat cells after treatment of each test compound: JAK2 (JAK2): 114.1% | JAK3 protein level relative to DMSO at 1 µM (JAK3): 111% | JAK protein ratio of Jurkat cells after treatment of each test compound: Tyk2 (Tyk2): 31.2%

CNC(=O)c1cnc(Nc2ccc(C(=O)NCCCCCCCCCCCC(=O)N[C@H](C(=O)N3C[C@H](O)C[C@H]3C(=O)NCc3ccc(-c4scnc4C)cc3)C(C)(C)C)cn2)cc1Nc1cccc(C(=O)NC)c1OC [Example 7, 6-((5-((12-(((S)-1-((2S,4R)-4-Hydroxy-2-((4-(4-methylthiazol-5-yl)benzyl)carbamoyl)pyrrolidin-1-yl)-3,3-dimethyl-1-oxobutan-2-yl)amino)-12-oxododecyl)carbamoyl)pyridin-2-yl)amino)-4-((2-methoxy-3-(methylcarbamoyl)phenyl)amino)-N-methylnicotinamide]
JAK protein ratio of Jurkat cells after treatment of each test compound: JAK1 (JAK1): 112.1% | JAK protein ratio of Jurkat cells after treatment of each test compound: JAK2 (JAK2): 108.2% | JAK3 protein level relative to DMSO at 1 µM (JAK3): 112% | JAK protein ratio of Jurkat cells after treatment of each test compound: Tyk2 (Tyk2): 47.1%

CNC(=O)c1cnc(Nc2ccc(C(=O)NCCCCCCCCCC(=O)N[C@H](C(=O)N3C[C@@H](O)C[C@H]3C(=O)NCc3ccc(-c4scnc4C)cc3)C(C)(C)C)cn2)cc1Nc1cccc(C(=O)NC)c1OC [Example 8, 6-((5-((10-(((S)-1-((2S,4S)-4-Hydroxy-2-((4-(4-methylthiazol-5-yl)benzyl)carbamoyl)pyrrolidin-1-yl)-3,3-dimethyl-1-oxobutan-2-yl)amino)-10-oxodecyl)carbamoyl)pyridin-2-yl)amino)-4-((2-methoxy-3-(methylcarbamoyl)phenyl)amino)-N-methylnicotinamide]
JAK protein ratio of Jurkat cells after treatment of each test compound: JAK1 (JAK1): 102.6% | JAK protein ratio of Jurkat cells after treatment of each test compound: JAK2 (JAK2): 122.5% | JAK3 protein level relative to DMSO at 1 µM (JAK3): 99% | protein level of Tyk2 (in words) (Tyk2): not reduced | JAK protein ratio of Jurkat cells after treatment of each test compound: Tyk2 (Tyk2): 97.0%

CNC(=O)c1cnc(Nc2ccc(C(=O)NCCCCCCCCCC(=O)N[C@H](C(=O)N3C[C@H](O)C[C@H]3C(=O)NCc3ccc(-c4scnc4C)cc3)C(C)(C)C)cn2)cc1Nc1cccc(C(=O)NCCO)c1OC [Example 11, 6-((5-((10-(((S)-1-((2S,4R)-4-hydroxy-2-((4-(4-methylthiazol-5-yl)benzyl)carbamoyl)pyrrolidin-1-yl)-3,3-dimethyl-1-oxobutan-2-yl)amino)-10-oxodecyl)carbamoyl)pyridin-2-yl)amino)-4-((3-((2-hydroxyethyl)carbamoyl)-2-methoxyphenyl)amino)-N-methylnicotinamide]
JAK protein ratio of Jurkat cells after treatment of each test compound: JAK1 (JAK1): 114.4% | JAK protein ratio of Jurkat cells after treatment of each test compound: JAK2 (JAK2): 132.2% | JAK3 protein level relative to DMSO at 1 µM (JAK3): 103% | JAK protein ratio of Jurkat cells after treatment of each test compound: Tyk2 (Tyk2): 55.1%

CNC(=O)c1cnc(Nc2ccc(C(=O)NCCCCCCCCC(=O)N[C@H](C(=O)N3C[C@H](O)C[C@H]3C(=O)NCc3ccc(-c4scnc4C)cc3)C(C)(C)C)cn2)cc1Nc1cccc(C(=O)NC)c1OC [Example 4, 6-((5-((9-(((S)-1-((2S,4R)-4-Hydroxy-2-((4-(4-methylthiazol-5-yl)benzyl)carbamoyl)pyrrolidin-1-yl)-3,3-dimethyl-1-oxobutan-2-yl)amino)-9-oxononyl)carbamoyl)pyridin-2-yl)amino)-4-((2-methoxy-3-(methylcarbamoyl)phenyl)amino)-N-methylnicotinamide]
JAK protein ratio of Jurkat cells after treatment of each test compound: JAK1 (JAK1): 129.1% | JAK protein ratio of Jurkat cells after treatment of each test compound: JAK2 (JAK2): 158.8% | JAK3 protein level relative to DMSO at 1 µM (JAK3): 129% | JAK protein ratio of Jurkat cells after treatment of each test compound: Tyk2 (Tyk2): 41.7%
